The results in this text go back to ChEMBL document CHEMBL3774380, “Development of Noviomimetics as C-Terminal Hsp90 Inhibitors” (ACS Med Chem Lett, 2016).

Activity calls are given as the source filed them. The rule behind the calls is not given here.

The species named for the first assay is Rattus norvegicus. As to the kind of experiment: Inhibition of Hsp90 in rat 50B11 cells expressing human HSPA1A gene assessed as increase in Hsp70 level at 10 to 1000 nM after 16 hrs by luciferase reporter assay. The format is cell-based. (In general: Reporter assays use an easily measured gene product as a stand-in for the process of interest.)
For `CC(=O)NCCc1ccc(OC2C[C@H](O)CO2)cc1-c1cccc(F)c1` (mixture of isomers), the inhibition result is “inactive”.
With `CC(=O)NCCc1ccc(OC2CCC(OCc3ccccc3)CC2)cc1-c1cccc(F)c1` (mixture of isomers), the inhibition result was “Active”.
With `CC(=O)NCCc1ccc(OC2OC[C@@H](O)[C@H]2O)cc1-c1cccc(F)c1` (mixture of isomers), the inhibition entry was “inactive”.
In the case of `CC(=O)NCCc1ccc(OC2C=CCC(C)(C)C2)cc1-c1cccc(F)c1` (racemic), the inhibition result was “inactive”.
Consider `CC(=O)NCCc1ccc(OC2OCCC2O)cc1-c1cccc(F)c1` (mixture of isomers), for which the inhibition entry was “inactive”.
`CC(=O)NCCc1ccc(OC2CCCC(OCc3ccccc3)C2)cc1-c1cccc(F)c1` (mixture of isomers): the inhibition result was “Active”.
As to `CC(=O)NCCc1ccc(O[C@@H]2CC[C@@H](OCc3ccccc3)C2)cc1-c1cccc(F)c1`, the inhibition entry was “inactive”.
As for `CC(=O)NCCc1ccc(OC2CCCC(O)C2)cc1-c1cccc(F)c1` (mixture of isomers), the inhibition result was “Active”.
On the same count and under the same terms, the entry for `CC(=O)NCCc1ccc(O[C@H]2CC[C@@H](OCc3ccccc3)C2)cc1-c1cccc(F)c1` is “inactive”; for `CC(=O)NCCc1ccc(OC2CCC(O)CC2)cc1-c1cccc(F)c1` (mixture of isomers) it is “Active”; for `CC(=O)NCCc1ccc(OC2C=CCCC2)cc1-c1cccc(F)c1` (racemic) it is “inactive”.

The species named for another assay is Rattus norvegicus. As to the kind of experiment: Inhibition of Hsp90 in rat 50B11 cells assessed as increase in Hsp70 level at 0.5 to 1000 nM after 24 hrs by Western blot method. The class given is cell-based. For orientation: In western blotting, separated proteins are transferred to a membrane and probed.
As for `CC(=O)NCCc1ccc(OC2CCC(OCc3ccccc3)CC2)cc1-c1cccc(F)c1` (mixture of isomers), the inhibition entry is “Active”.
For the compound `CO[C@@H]1[C@@H](O)[C@@H](O)[C@H](Oc2ccc(CCNC(C)=O)c(-c3cccc(F)c3)c2)OC1(C)C`, the inhibition entry is “Active”.
